Reference: the supplement of paper PMC10627819

Experiments:
B. subtilis 168 [1] = assay: fitness (endpoint OD595 vs no drug) (fraction); higher = more growth
Summary of the method: (§1)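 Fitness was measured as bacterial growth in 384-well plates inoculated at OD595 0.01 (30 µl, or 55 µl for S. pneumoniae). Media were TSB, LB Lennox or CY, at 37 °C. OD595 was read every 30 min for 14 h and background-subtracted against the first reading. Fitness is OD595 at the transition into stationary phase divided by the robust mean of no-drug control wells, capped at 1.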

S. pneumoniae D39V [2] = assay: as above
Summary of the method: as §1

B. subtilis 168 [3] = assay: Bliss interaction score (quartile over a dose matrix) (fitness difference); higher = more antagonism (negative = synergy)
Summary of the method: (§2)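 The Bliss score subtracts expected fitness, the product of the single-drug fitness values, from observed fitness. Fitness is plate-normalised OD595 at entry into stationary phase, relative to the robust no-drug mean and capped at 1, with single-drug fitness inferred from combinations. Summaries are quartiles over technical, biological and donor/recipient replicates.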

S. aureus Newman = assay: as above
Summary of the method: as §2

S. pneumoniae D39V [4] = assay: as above
Summary of the method: as §2

S. aureus DSM 20231 = assay: as above
Summary of the method: as §2
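Throughout, for Bliss interaction score (quartile over a dose matrix): first quartile when negative (synergy) and third quartile when positive (antagonism).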

CO/N=C(\C(=O)N[C@@H]1C(=O)N2C(C(=O)O)=C(COC(C)=O)CS[C@H]12)c1csc(N)n1 [Cefotaxime] + CCC(C)C1C(=O)NC(=C)C(=O)NC(C(=O)NC(CSCC(C(=O)N1)NC(=O)/C(=C/C)/NC(=O)C(C(C)CC)N)C(=O)NC2C(SCC(NC(=O)CNC(=O)C3CCCN3C2=O)C(=O)NC(CCCCN)C(=O)NC4C(SCC(NC(=O)CNC(=O)C(NC(=O)C(NC(=O)C(NC(=O)CNC4=O)C)CC(C)C)CCSC)C(=O)NC(CC(=O)N)C(=O)NC(CCSC)C(=O)NC(CCCCN)C(=O)NC5C(SCC6C(=O)NC(C(=O)NC(CSC(C(C(=O)N6)NC(=O)C(NC5=O)C)C)C(=O)NC(CO)C(=O)NC(C(C)CC)C(=O)NC(CC7=CN=CN7)C(=O)NC(C(C)C)C(=O)NC(=C)C(=O)NC(CCCCN)C(=O)O)CC8=CN=CN8)C)C)C)CC(C)C [Nisin]
B. subtilis 168 [1], one replicate, main component drawn
Conditions	fitness
first compound 0.00775 µg/mL, partner 0.5 µg/mL	0.825
first compound 0.00775 µg/mL, partner 1 µg/mL	0.74
first compound 0.00775 µg/mL, partner 2 µg/mL	0.508
first compound 0.0155 µg/mL, partner 0.5 µg/mL	0.704
first compound 0.0155 µg/mL, partner 1 µg/mL	0.605
first compound 0.0155 µg/mL, partner 2 µg/mL	0.434
first compound 0.031 µg/mL, partner 0.5 µg/mL	0.513
first compound 0.031 µg/mL, partner 1 µg/mL	0.432
first compound 0.031 µg/mL, partner 2 µg/mL	0.251
first compound 0.0625 µg/mL, partner 1.25 µg/mL	0.397
first compound 0.0625 µg/mL, partner 1.6 µg/mL	0.18
first compound 0.0625 µg/mL, partner 2.5 µg/mL	0.0546
first compound 0.0625 µg/mL, partner 3.2 µg/mL	0.0399
first compound 0.0625 µg/mL, partner 5 µg/mL	0.0497
first compound 0.0625 µg/mL, partner 6.4 µg/mL	0.0827
first compound 0.125 µg/mL, partner 1.25 µg/mL	0.176
first compound 0.125 µg/mL, partner 1.6 µg/mL	0.0847
first compound 0.125 µg/mL, partner 2.5 µg/mL	0.0355
first compound 0.125 µg/mL, partner 3.2 µg/mL	0.0507
first compound 0.125 µg/mL, partner 5 µg/mL	0.0352
first compound 0.125 µg/mL, partner 6.4 µg/mL	0.0748
first compound 0.25 µg/mL, partner 1.25 µg/mL	0.109
first compound 0.25 µg/mL, partner 1.6 µg/mL	0.0456
first compound 0.25 µg/mL, partner 2.5 µg/mL	0.0476
first compound 0.25 µg/mL, partner 3.2 µg/mL	0.0432
first compound 0.25 µg/mL, partner 5 µg/mL	0.0316
first compound 0.25 µg/mL, partner 6.4 µg/mL	0.0433
first compound 0.5 µg/mL, partner 0.5 µg/mL	0.105
first compound 0.5 µg/mL, partner 1 µg/mL	0.0334
first compound 0.5 µg/mL, partner 2 µg/mL	0.0461
first compound 0.5 µg/mL, partner 4 µg/mL	0.0435
first compound 0.5 µg/mL, partner 8 µg/mL	0.0411
first compound 0.5 µg/mL, partner 16 µg/mL	0.025
first compound 1 µg/mL, partner 0.5 µg/mL	0.0988
first compound 1 µg/mL, partner 1 µg/mL	0.0354
first compound 1 µg/mL, partner 2 µg/mL	0.0395
first compound 1 µg/mL, partner 4 µg/mL	0.0388
first compound 1 µg/mL, partner 8 µg/mL	0.0243
first compound 1 µg/mL, partner 16 µg/mL	0.0126
first compound 2 µg/mL, partner 0.5 µg/mL	0.0708
first compound 2 µg/mL, partner 1 µg/mL	0.0361
first compound 2 µg/mL, partner 2 µg/mL	0.0552
first compound 2 µg/mL, partner 4 µg/mL	0.0578
first compound 2 µg/mL, partner 8 µg/mL	0.0592
first compound 2 µg/mL, partner 16 µg/mL	0.0351

fitness, S. pneumoniae D39V [2], main component drawn
Conditions	partner 0.4275 µg/mL	partner 0.855 µg/mL	partner 1.6 µg/mL	partner 1.71 µg/mL	partner 3.2 µg/mL	partner 6.4 µg/mL
first compound 0.0018 µg/mL	0.995	≥ 1	0.0249	0.0807	0.0291	0.0188
first compound 0.0035 µg/mL	0.896	0.936	0.0152	0.0712	0.0408	0.0145
first compound 0.007 µg/mL	0.835	0.577	0.0188	0.0886	0.0158	0.0145

main component drawn
Conditions	Bliss interaction score
B. subtilis 168 [3]	-0.0392
S. aureus DSM 20231	-0.199
S. aureus Newman	-0.0293
S. pneumoniae D39V [4]	-0.051

C[C@H]1c2cccc(O)c2C(=O)C2=C(O)[C@]3(O)C(=O)C(C(N)=O)=C(O)[C@@H](N(C)C)[C@@H]3[C@@H](O)[C@@H]21 [Doxycycline] + CC1=C\[C@@H](O)CC(=O)Cc2nc(co2)C(=O)N2CCC=C2C(=O)O[C@H](C(C)C)[C@H](C)/C=C/C(=O)NC\C=C\1 [Virginiamycin M1]
fitness
Conditions	first compound 0.0155 µg/mL	first compound 0.02 µg/mL	first compound 0.031 µg/mL	first compound 0.04 µg/mL	first compound 0.062 µg/mL	first compound 0.08 µg/mL
B. subtilis 168 [1], partner 0.0625 µg/mL	–	0.898	–	0.805	–	0.572
B. subtilis 168 [1], partner 0.125 µg/mL	–	0.899	–	0.726	–	0.458
B. subtilis 168 [1], partner 0.25 µg/mL	–	0.936	–	0.806	–	0.491
S. pneumoniae D39V [2], partner 0.5 µg/mL	0.968	–	0.902	–	0.813	–
S. pneumoniae D39V [2], partner 1 µg/mL	0.998	–	0.847	–	0.831	–
S. pneumoniae D39V [2], partner 2 µg/mL	0.904	–	0.794	–	0.758	–

S. pneumoniae D39V [2], one replicate
Conditions	fitness
first compound 0.003875 µg/mL, partner 0.5 µg/mL	≥ 1
first compound 0.003875 µg/mL, partner 1 µg/mL	≥ 1
first compound 0.003875 µg/mL, partner 2 µg/mL	≥ 1
first compound 0.00775 µg/mL, partner 0.5 µg/mL	0.995
first compound 0.00775 µg/mL, partner 1 µg/mL	≥ 1
first compound 0.00775 µg/mL, partner 2 µg/mL	≥ 1
first compound 0.0155 µg/mL, partner 0.15 µg/mL	0.887
first compound 0.0155 µg/mL, partner 0.3 µg/mL	0.823
first compound 0.031 µg/mL, partner 0.15 µg/mL	0.878
first compound 0.031 µg/mL, partner 0.3 µg/mL	0.819
first compound 0.062 µg/mL, partner 0.15 µg/mL	0.793
first compound 0.062 µg/mL, partner 0.3 µg/mL	0.762

Conditions	Bliss interaction score
B. subtilis 168 [3]	0.0353
S. aureus DSM 20231	-0.151
S. aureus Newman	-0.0791
S. pneumoniae D39V [4]	0.0434

C[C@H]1c2cccc(O)c2C(=O)C2=C(O)[C@]3(O)C(=O)C(C(N)=O)=C(O)[C@@H](N(C)C)[C@@H]3[C@@H](O)[C@@H]21 [Doxycycline] + CC(C1CCC(C(O1)OC2C(CC(C(C2O)OC3C(C(C(CO3)(C)O)NC)O)N)N)N)NC [Gentamicin]
main component drawn
Conditions	fitness
B. subtilis 168 [1], first compound 0.02 µg/mL, partner 0.0625 µg/mL	0.896
B. subtilis 168 [1], first compound 0.04 µg/mL, partner 0.0625 µg/mL	0.747
B. subtilis 168 [1], first compound 0.08 µg/mL, partner 0.25 µg/mL	0.0845
S. pneumoniae D39V [2], first compound 0.0155 µg/mL, partner 2 µg/mL	0.885
S. pneumoniae D39V [2], first compound 0.0155 µg/mL, partner 4 µg/mL	0.857
S. pneumoniae D39V [2], first compound 0.0155 µg/mL, partner 8 µg/mL	0.824

fitness, S. pneumoniae D39V [2], one replicate, main component drawn
Conditions	partner 2 µg/mL	partner 4 µg/mL	partner 8 µg/mL
first compound 0.003875 µg/mL	≥ 1	≥ 1	≥ 1
first compound 0.00775 µg/mL	≥ 1	0.995	0.967

main component drawn
Conditions	Bliss interaction score
B. subtilis 168 [3]	0.213
S. aureus DSM 20231	0.067
S. aureus Newman	0.0873
S. pneumoniae D39V [4]	-0.208
